# Source: patent US12503436B2, “Compounds and compositions for treating conditions associated with STING activity” (NOVARTIS PHARMA AG, priority 2021, dated 2025)
# Target: STING (Homo sapiens, UniProt Q86WV6, G230A/H232R/R293Q/R71H)
# Assay: STING reporter assay in THP1-Dual KO-IFNAR2 cells (2′3′cGAMP stimulation, luciferase reporter)
# Type: cell-based
# Settings: 15 μM 2′3′cGAMP stimulation, 24 h, read-out: Pharmaron, THP1_IFNAR2 STING 24 h Luci Normalized: GeoMean EC50
# Procedure: STING pathway activation by the compounds described herein was measured using THP1-Dual™ cells (KO-IFNAR2).
# THP1-Dual™ KO-IFNAR2 Cells (obtained from InvivoGen) were maintained in RPMI, 10% FCS, 5 ml P/S, 2 mM L-glut, 10 mM Hepes, and 1 mM sodium pyruvate. Compounds were spotted in empty 384 well tissue culture plates (Greiner 781182) by Echo for a final concentration of 0.0017-100 μM. Cells were plated into the TC plates at 40 μL per well, 2×10E6 cells/mL. For activation with STING ligand, 2′3′cGAMP (MW 718.38, obtained from Invivogen), was prepared in Optimem media.
# The following solutions were prepared for each 1×384 plate: • Solution A: 2 mL Optimem with one of the following stimuli: • 60 μL of 10 mM 2′3′cGAMP→150 μM stock • Solution B: 2 mL Optimem with 60 μL Lipofectamine 2000→Incubate 5 min at RT
# 2 mL of solution A and 2 ml Solution B was mixed and incubated for 20 min at room temperature (RT). 20 μL of transfection solution (A+B) was added on top of the plated cells, with a final 2′3′cGAMP concentration of 15 μM. The plates were then centrifuged immediately at 340 g for 1 minute, after which they were incubated at 37° C., 5% CO2, >98% humidity for 24 h. Luciferase reporter activity was then measured. EC50 values were calculated by using standard methods known in the art.
# Luciferase reporter assay: 10 μL of supernatant from the assay was transferred to white 384-plate with flat bottom and squared wells. One pouch of QUANTI-Luc™ Plus was dissolved in 25 mL of water. 100 μL of QLC Stabilizer per 25 mL of QUANTI-Luc™ Plus solution was added. 50 μL of QUANTI-Luc™ Plus/QLC solution per well was then added. Luminescence was measured on a Platereader (e.g., Spectramax I3X (Molecular Devices GF3637001)).
# Luciferase reporter activity was then measured. EC50 values were calculated by using standard methods known in the art.
# Sequence of STING (Q86WV6 whole entry R71H/G230A/H232R/R293Q): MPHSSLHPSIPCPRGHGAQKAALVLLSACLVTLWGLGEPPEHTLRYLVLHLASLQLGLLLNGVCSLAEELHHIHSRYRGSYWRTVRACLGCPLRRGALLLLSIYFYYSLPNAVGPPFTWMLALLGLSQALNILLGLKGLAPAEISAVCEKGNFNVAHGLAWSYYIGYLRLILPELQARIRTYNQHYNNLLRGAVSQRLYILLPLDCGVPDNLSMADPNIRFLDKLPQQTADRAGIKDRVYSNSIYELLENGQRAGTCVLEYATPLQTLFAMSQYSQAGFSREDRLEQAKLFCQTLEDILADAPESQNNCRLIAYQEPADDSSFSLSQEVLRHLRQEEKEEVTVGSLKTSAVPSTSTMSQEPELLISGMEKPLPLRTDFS
row,EC50 [nM],Compound
1,200 to 1000,"1-fluoro-N-(5-(2-((3aR,5r,6aS)-2-(2,2,2-trifluoroethyl)octahydrocyclopenta[c]pyrrol-5-yl)ethoxy)-1H-indol-3-yl)cyclopropane-1-carboxamide [Compound 371]"
2,200 to 1000,"2,2-dimethyl-N-(5-(2-((3aR,5r,6aS)-2-(2,2,2-trifluoroethyl)octahydrocyclopenta[c]pyrrol-5-yl)ethoxy)-1H-indol-3-yl)cyclopropane-1-carboxamide [Compound 368]"
3,200 to 1000,"3,3-dimethyl-N-(5-(2-((3aR,5r,6aS)-2-(2,2,2-trifluoroethyl)octahydrocyclopenta[c]pyrrol-5-yl)ethoxy)-1H-indol-3-yl)butanamide [Compound 339]"
4,200 to 1000,"3-(hydroxymethyl)-N-(5-(2-((3aR,5r,6aS)-2-(2,2,2-trifluoroethyl)octahydrocyclopenta[c]pyrrol-5-yl)ethoxy)-1H-indol-3-yl)cyclobutane-1-carboxamide [Compound 343]"
5,200 to 1000,"3-chloro-N-(5-(2-((3aR,5r,6aS)-2-(2,2,2-trifluoroethyl)octahydrocyclopenta[c]pyrrol-5-yl)ethoxy)-1H-indol-3-yl)cyclobutane-1-carboxamide [Compound 342]"
6,200 to 1000,"3-hydroxy-N-(5-(2-((3aR,5r,6aS)-2-(2,2,2-trifluoroethyl)octahydrocyclopenta[c]pyrrol-5-yl)ethoxy)-1H-indol-3-yl)cyclobutane-1-carboxamide [Compound 347]"
7,200 to 1000,"O=C(Nc1c[nH]c2ccc(CC(O)Cc3ccc(C(F)(F)F)cc3)cc12)C1CC1 (single isomer, unassigned) [Compound 200, N-(5-(2-hydroxy-3-(4-(trifluoromethyl)phenyl)propyl)-1H-indol-3-yl)cyclopropanecarboxamide]"
8,200 to 1000,"O=C(Nc1c[nH]c2ccc(CC(O)Cc3ccc(C(F)(F)F)cc3)cc12)C1CC1 (single isomer, unassigned) [Compound 201, N-(5-(2-hydroxy-3-(4-(trifluoromethyl)phenyl)propyl)-1H-indol-3-yl)cyclopropanecarboxamide]"
9,1000 to 5000,"CC(=O)Nc1c[nH]c2ccc(OCCC3CCCN(CC(F)(F)F)C3)cc12 (single isomer, unassigned) [Compound 279]"
10,1000 to 5000,"CC(=O)Nc1c[nH]c2ccc(OCCC3CCCN(CC(F)(F)F)C3)cc12 (single isomer, unassigned) [Compound 280]"
11,1000 to 5000,"CC(=O)Nc1c[nH]c2ccc(OC(C)Cc3ccc(C(F)(F)F)cc3)cc12 (single isomer, unassigned) [Compound 285, N-(5-((1-(4-(trifluoromethyl)phenyl)propan-2-yl)oxy)-1H-indol-3-yl)acetamide]"
12,1000 to 5000,"CC(=O)Nc1c[nH]c2ccc(OC(C)Cc3ccc(C(F)(F)F)cc3)cc12 (single isomer, unassigned) [Compound 286, N-(5-((1-(4-(trifluoromethyl)phenyl)propan-2-yl)oxy)-1H-indol-3-yl)acetamide]"
13,200 to 1000,"CC(=O)Nc1c[nH]c2ccc(OCC[C@H]3CC[C@@H](C(F)(F)F)CC3)cc12 (single isomer, unassigned) [Compound 454, N-(5-(2-(cis-4-(trifluoromethyl)cyclohexyl)ethoxy)-1H-indol-3-yl)acetamide]"
14,200 to 1000,"CC(=O)Nc1c[nH]c2ccc(OCC[C@H]3CC[C@H](C(F)(F)F)CC3)cc12 (single isomer, unassigned) [Compound 456, N-(5-(2-(trans-4-(trifluoromethyl)cyclohexyl)ethoxy)-1H-indol-3-yl)acetamide]"
15,200 to 1000,"CC(=O)Nc1c[nH]c2ccc(COCc3ccc(Cl)c(Cl)c3)cc12 [Compound 101, N-(5-(((3,4-dichlorobenzyl)oxy)methyl)-1H-indol-3-yl)acetamide]"
16,200 to 1000,"CC(=O)Nc1c[nH]c2ccc(OCCC3CCN(c4ccc(C(F)(F)F)cc4)CC3)cc12 [Compound 104, N-(5-(2-(1-(4-(trifluoromethyl)phenyl)piperidin-4-yl)ethoxy)-1H-indol-3-yl)acetamide]"
17,1000 to 5000,"CC(=O)Nc1c[nH]c2ccc(OCC(F)C3CCN(CC(F)(F)F)CC3)cc12 (centres unmarked) [Compound 105, N-(5-(2-fluoro-2-(1-(2,2,2-trifluoroethyl)piperidin-4-yl)ethoxy)-1H-indol-3-yl)acetamide]"
18,200 to 1000,"CC(=O)Nc1c[nH]c2ccc(COCc3cccc(C(F)(F)F)c3)cc12 [Compound 106, N-(5-(((3-(trifluoromethyl)benzyl)oxy)methyl)-1H-indol-3-yl)acetamide]"
19,40 to 200,"COCC(=O)Nc1c[nH]c2ccc(OCCc3ccc(C(F)(F)F)cc3)cc12 [Compound 107, 2-methoxy-N-(5-(4-(trifluoromethyl)phenethoxy)-1H-indol-3-yl)acetamide]"
20,5000 to 100000,"CC(=O)Nc1c[nH]c2ccc(OCC(C)(C)C3CCN(CC(F)(F)F)CC3)cc12 [Compound 108, N-(5-(2-methyl-2-(1-(2,2,2-trifluoroethyl)piperidin-4-yl)propoxy)-1H-indol-3-yl)acetamide]"
21,40 to 200,"O=C(Nc1c[nH]c2ccc(COCc3ccc(C(F)(F)F)cc3)cc12)C1CCC1 [Compound 109, N-(5-(((4-(trifluoromethyl)benzyl)oxy)methyl)-1H-indol-3-yl)cyclobutanecarboxamide]"
22,200 to 1000,"CC(=O)Nc1c[nH]c2ccc(OCC[C@@H]3[C@H]4CN(CC(F)(F)F)C[C@@H]34)cc12 [Compound 110, N-(5-(2-((1R,5S,6s)-3-(2,2,2-trifluoroethyl)-3-azabicyclo[3.1.0]hexan-6-yl)ethoxy)-1H-indol-3-yl)acetamide]"
23,40 to 200,"CC(=O)Nc1c[nH]c2ccc(COCc3ccc(C(F)(F)F)cc3)cc12 [Compound 111, N-(5-(((4-(trifluoromethyl)benzyl)oxy)methyl)-1H-indol-3-yl)acetamide]"
24,5000 to 100000,"CC(=O)Nc1c[nH]c2ccc(OCC(F)(F)CN3CCC(F)(F)CC3)cc12 [Compound 112, N-(5-(3-(4,4-difluoropiperidin-1-yl)-2,2-difluoropropoxy)-1H-indol-3-yl)acetamide]"

row,Compound,EC50 [nM]
1,"3-methyl-N-(5-(2-((3aR,5r,6aS)-2-(2,2,2-trifluoroethyl)octahydrocyclopenta[c]pyrrol-5-yl)ethoxy)-1H-indol-3-yl)oxetane-3-carboxamide [Compound 382]",200 to 1000
2,"CC(=O)Nc1c[nH]c2ccc(O[C@@H]3C[C@H](c4ccc(C(F)(F)F)cc4)C3(C)C)cc12 (relative stereo) [Compound 432, N-(5-(cis-2,2-dimethyl-3-(4-(trifluoromethyl)phenyl)cyclobutoxy)-1H-indol-3-yl)acetamide]",1000 to 5000
3,"C[C@]1(C(=O)Nc2c[nH]c3ccc(O[C@H]4C[C@H](c5ccc(C(F)(F)F)cc5)C4)cc23)CC[C@H](O)CC1 (single isomer, unassigned) [Compound 425, trans-4-hydroxy-1-methyl-N-(5-(trans-3-(4-(trifluoromethyl)phenyl)cyclobutoxy)-1H-indol-3-yl)cyclohexane-1-carboxamide]",200 to 1000
4,"C[C@]1(C(=O)Nc2c[nH]c3ccc(O[C@H]4C[C@H](c5ccc(C(F)(F)F)cc5)C4)cc23)CC[C@@H](O)CC1 (single isomer, unassigned) [Compound 426, cis-4-hydroxy-1-methyl-N-(5-(trans-3-(4-(trifluoromethyl)phenyl)cyclobutoxy)-1H-indol-3-yl)cyclohexane-1-carboxamide]",40 to 200
5,"N#C[C@H]1C[C@@H]1C(=O)Nc1c[nH]c2ccc(O[C@H]3C[C@@H](c4ccc(C(F)(F)F)cc4)C3)cc12 (stereo in doubt) [Compound 332, cis-2-cyano-N-(5-(cis-3-(4-(trifluoromethyl)phenyl)cyclobutoxy)-1H-indol-3-yl)cyclopropane-1-carboxamide]",200 to 1000
6,"CC1(C(=O)Nc2c[nH]c3ccc(OC4CC(c5ccc(C(F)(F)F)nc5)C4)cc23)CC1 (stereo in doubt) [Compound 580, 1-methyl-N-(5-(cis-3-(6-(trifluoromethyl)pyridin-3-yl)cyclobutoxy)-1H-indol-3-yl)cyclopropane-1-carboxamide]",40 to 200
7,"CC(=O)Nc1c[nH]c2ccc(O[C@H]3C[C@@H](c4ccc(C(F)(F)F)cc4)C3)cc12 [Compound 102, N-(5-(cis-3-(4-(trifluoromethyl)phenyl)cyclobutoxy)-1H-indol-3-yl)acetamide]",40 to 200
8,"CC(=O)Nc1c[nH]c2ccc(O[C@H]3C[C@H](c4ccc(C(F)(F)F)cc4)C3)cc12 [Compound 103, N-(5-(trans-3-(4-(trifluoromethyl)phenyl)cyclobutoxy)-1H-indol-3-yl)acetamide]",40 to 200
